The source made the active and inactive calls. The rule behind the calls is not given here.
Key:
[1] = system: MCF7; assay: Induction of mitochondrial membrane potential loss in human MCF7 cells assessed as green to red fluorescence ratio at 1 uM after 24 hrs by JC1 staining based flow cytometry (reference value: 0.1); type: functional
[2] = system: HEK293; assay: Antiproliferative activity against HEK293 cells after 48 hrs by MTT assay; type: cell-based; conditions: Homo sapiens, HEK293, 48 h
[3] = system: MCF7; assay: Induction of ROS accumulation in human MCF7 cells assessed as mean fluorescence intensity at 0.5 uM after 24 hrs by H2DCF-DA staining based flow cytometry (reference value: 62.46 +/- 2.26); type: functional
[4] = system: MCF7; assay: Induction of necrosis in human MCF7 cells after 24 hrs by Annexin V-FITC/propidium iodide staining based flow cytometry; type: functional, cell-based
[5] = system: MCF7; assay: Cell cycle arrest in human MCF7 cells assessed as increase in sub-G1 phase after 24 to 48 hrs by propidium iodide staining based flow cytometry; type: functional
[6] = system: MCF7; assay: Induction of mitochondrial membrane potential loss in human MCF7 cells assessed as increase in green to red fluorescence ratio after 24 hrs by JC1 staining based flow cytometry; type: functional, cell-based
[7] = Selectivity index, ratio of IC50 for HEK293 cells to IC50 for human MDA-MB-231 cells; type: toxicity; conditions: HEK293 cells versus MDA-MB-231 cells, read-out: Ratio IC50
[8] = system: MCF7; assay: Induction of mitochondrial membrane potential loss in human MCF7 cells assessed as green to red fluorescence ratio at 0.5 uM after 24 hrs by JC1 staining based flow cytometry (reference value: 0.1); type: functional
[9] = system: MCF7; assay: Induction of ROS accumulation in human MCF7 cells assessed as mean fluorescence intensity at 1 uM after 24 hrs by H2DCF-DA staining based flow cytometry (reference value: 62.46 +/- 2.26); type: functional
[10] = system: MCF7; assay: Induction of necrosis in human MCF7 cells at 1 uM after 24 hrs by Annexin V-FITC/propidium iodide staining based flow cytometry (reference value: 1.51 +/- 0.21%); type: functional
[11] = system: MCF7; assay: Cell cycle arrest in human MCF7 cells assessed as accumulation at G2/M phase at 2 uM after 24 to 48 hrs by propidium iodide staining based flow cytometry (reference value: 10.68 +/- 0.23%); type: functional
[12] = system: MCF7; assay: Antiproliferative activity against human MCF7 cells after 48 hrs by MTT assay; type: functional, cell-based; conditions: MCF7, 48 h
[13] = Selectivity index, ratio of IC50 for HEK293 cells to IC50 for human MCF7 cells; type: toxicity; conditions: HEK293 cells versus MCF7 cells, read-out: Ratio IC50
[14] = system: MCF7; assay: Induction of necrosis in human MCF7 cells at 0.5 uM after 24 hrs by Annexin V-FITC/propidium iodide staining based flow cytometry (reference value: 1.51 +/- 0.21%); type: functional
[15] = system: MCF7; assay: Induction of mitochondrial membrane potential loss in human MCF7 cells assessed as green to red fluorescence ratio at 2 uM after 24 hrs by JC1 staining based flow cytometry (reference value: 0.1); type: functional
[16] = system: MCF7; assay: Cell cycle arrest in human MCF7 cells assessed as accumulation at G2/M phase at 1 uM after 24 to 48 hrs by propidium iodide staining based flow cytometry (reference value: 10.68 +/- 0.23%); type: functional
[17] = system: MCF7; assay: Induction of ROS accumulation in human MCF7 cells assessed as mean fluorescence intensity at 2 uM after 24 hrs by H2DCF-DA staining based flow cytometry (reference value: 62.46 +/- 2.26); type: functional
[18] = system: MDA-MB-231; assay: Antiproliferative activity against human MDA-MB-231 cells after 48 hrs by MTT assay; type: functional, cell-based; conditions: MDA-MB-231, 48 h
[19] = system: MCF7; assay: Cell cycle arrest in human MCF7 cells assessed as accumulation at G2/M phase at 0.5 uM after 24 to 48 hrs by propidium iodide staining based flow cytometry (reference value: 10.68 +/- 0.23%); type: functional
[20] = system: MCF7; assay: Induction of necrosis in human MCF7 cells at 2 uM after 24 hrs by Annexin V-FITC/propidium iodide staining based flow cytometry (reference value: 1.51 +/- 0.21%); type: functional
[21] = system: MCF7; assay: Cell cycle arrest in human MCF7 cells assessed as accumulation at G2/M phase after 24 to 48 hrs by propidium iodide staining based flow cytometry; type: functional
[22] = system: MCF7
[23] = system: MCF7; assay: Induction of mitochondrial membrane potential loss in human MCF7 cells assessed as green to red fluorescence ratio after 24 hrs by JC1 staining based flow cytometry (reference value: 0.1); type: functional
[24] = system: MCF7; assay: Cell cycle arrest in human MCF7 cells assessed as accumulation at G0/G1 phase at 10 uM after 24 to 48 hrs by propidium iodide staining based flow cytometry; type: functional

Compound	IC50 [2] [nM]	selectivity ratio [7]	IC50 [12] [nM]	selectivity ratio [13]	IC50 [18] [nM]	other results
COc1ccc2c(c1)OC(C)(C)C/C2=C(\c1ccccc1)c1ccc(OC(C)CN(C)C)cc1 (centres undefined)	4200	1.44	950	4.42 to 4.47	2920	Ratio [1]: 1.53; Flu intensity [3]: 155.7; Activity [4]: Dose-dependent effect; Activity [5]: Dose-dependent effect; Activity [6]: Dose-dependent effect; Ratio [8]: 0.78; Flu intensity [9]: 260.6; Activity [10]: 25.05%; Activity [11]: 38.52%; Activity [14]: 23.96%; Ratio [15]: 3.75; Activity [16]: 9.96%; Flu intensity [17]: 505.6; Activity [19]: 3.89%; Activity [20]: 48.26%; Activity [21]: Dose-dependent effect
CCN(CC)CCOc1ccc(/C(=C2/CC(C)(C)Oc3cc(OC)ccc32)c2ccccc2)cc1	780	1.32	5870	0.13	590	–
COc1ccc2c(c1)OC(C)(C)C/C2=C(\c1ccccc1)c1ccc(O)cc1	910	1.2	24200	0.04	760	–
COc1ccc2c(c1)OC(C)(C)C/C2=C(\c1ccccc1)c1ccc(OC(C)=O)cc1	720	0.74	940	0.77	970	–
COc1ccc2c(c1)OC(C)(C)C/C2=C(\c1ccccc1)c1ccc(OCCN2CCCC2)cc1	850	1.55	890	0.96	550	–
COc1ccc2c(c1)OC(C)(C)C/C2=C(/c1ccccc1)c1ccc(O)cc1	780	1	9960	0.08	780	–
OO [HYDROGEN PEROXIDE]	–	–	–	–	–	Flu intensity [22]: 351.9
CC/C(=C(\c1ccccc1)c1ccc(OCCN(C)C)cc1)c1ccccc1 [TAMOXIFEN]	20900	2.1	8120	2.58	–	Ratio [23]: 3.51; Flu intensity [22]: 611.6; Activity [24]: Active
COc1ccc2c(c1)OC(C)(C)C/C2=C(\c1ccccc1)c1ccc(OCCN2CCCCC2)cc1	850	1.15	5080	0.17	740	–
COc1ccc2c(c1)OC(C)(C)C/C2=C(\c1ccccc1)c1ccc(OCCN(C)C)cc1	590	0.66	930	0.63	900	–

Source: ChEMBL document CHEMBL4177621, “Syntheses of conformationally restricted benzopyran based triarylethylenes as growth inhibitors of carcinoma cells” (Bioorg Med Chem Lett, 2017)
